In data set [1] the test system is methicillin-resistant Staphylococcus aureus (MRSA). The experiment in a line: In vitro antibacterial activity, standard agar dilution method, MRSA. The data set is classed as cell-based. The settings on record: clinical strains. The source says:
(§1) Strains for test: methicillin-resistant Staphylococcus aureus (MRSA), methicillin-sensitive Staphylococcus aureus (MSSA), methicillin-resistant Staphylococcus epidermidis (MRSE), methicillin-sensitive Staphylococcus […] (MSSE), Enterococcus faecium, Enterococcus faecalis, streptococcus pneumoniae. Obtained from: Qianfoshan Hospital, First People's Hospital of Yunnan Province, Renji Hospital of Shanghai, People's Hospital of Jilin Province, Southwest Hospital.
(§2) Compounds 1, 3, 4, 6, 8, 11 of the present invention, prepared according to the process in each of the examples.
(§3) Control pharmaceutical: linezolid.
(§4) standard agar dilution method, reference was made to National Committee for Clinical Laboratory Standards. 2006. Methods for Dilution Antimicrobial Susceptibility Tests for Bacteria That Grow Aerobically, Approved Standard—Seventh Edition M7-A7.
In general terms: Agar dilution tests growth on a series of plates holding different concentrations.

Data set [2] has as its system methicillin-resistant Staphylococcus epidermidis (MRSE). The experiment in a line: In vitro antibacterial activity, standard agar dilution method, MRSE. In kind it is cell-based. The settings on record: clinical strains.
From the text: as §1, §2, §3, §4

Data set [3] has as its system methicillin-sensitive Staphylococcus aureus (MSSA). The experiment in a line: In vitro antibacterial activity, standard agar dilution method, MSSA. In kind it is cell-based. The settings on record: clinical strains.
From the text: as §1, §2, §3, §4

The test system of data set [4] is methicillin-sensitive Staphylococcus aureus (MSSE). The experiment in a line: In vitro antibacterial activity, standard agar dilution method, MSSE. The data set is classed as cell-based, Staphylococcus epidermidis. The settings on record: clinical strains.
From the text: as §1, §2, §3, §4

For the next data set, the system named is Enterococcus faecalis. The experiment in a line: In vitro antibacterial activity, standard agar dilution method, Enterococcus faecalis. In kind it is cell-based. The settings on record: clinical strains.
From the text: as §1, §2, §3, §4

For another data set, the system named is Enterococcus faecium. As to the kind of experiment: In vitro antibacterial activity, standard agar dilution method, Enterococcus faecium. In kind it is cell-based. The settings on record: clinical strains.
From the text: as §1, §2, §3, §4

The subject of the next data set is streptococcus pneumoniae. The experiment in a line: In vitro antibacterial activity, standard agar dilution method, Streptococcus pneumoniae. The settings on record: clinical strains. The data set is classed as cell-based.
From the text: as §1, §2, §3, §4

Data set [5] relates to methicillin-sensitive (MSSE). The experiment in a line: In vitro antibacterial activity, standard agar dilution method, MSSE. The settings on record: clinical strains. In kind it is cell-based, Staphylococcus epidermidis.
From the text: as §1, §2, §3, §4

Data set [6] in a line: In vivo pharmacokinetics test on rat, I.V (intravenous push). The settings on record: male SD rat, 0.75 mg/kg, plasma, Compound 3 itself detected. The protocol: (§5) Compounds 2, 3, 5, 7, 9, prepared by the processes in the examples, dissolved in physiological saline.
(§6) Administration is performed as described in the table below, fasting without water deprivation for 16 hours before administration, providing food 4 hours after the administration.
I.V representing administration by intravenous push
(§7) I.V: blood collection was carried out according to the time points in the table below. At each time point about 100 μl whole blood was collected into a heparin sodium anticoagulation tube, centrifuged at 4° C. in a low temperature high speed centrifuge at 8000 rpm for 6 minutes. Plasma was separated and stored frozen in a freezer at −80° C.
(§8) Compound 5, 7, 9: 20 μl plasma was each taken and added into 100 μl of Torezolid (TR-700) solution in methanol at a concentration of 50 ng/ml, mixed under vortex for 5 minutes, centrifuged at 12000 rpm for 5 minutes; 100 μl of supernatant was taken and added into 100 μl water, mixed under vortex for 2 minutes, and analyzed by using LC-MS/MS.
(§9) Compound 2: 20 μl plasma was taken and added into 100 μl of Radezolid solution in methanol at a concentration of 50 ng/ml, mixed under vortex for 3 minutes, centrifuged at 12000 rpm for 5 minutes; 100 μl of supernatant was taken and added into 100 μl water, mixed under vortex for 2 minutes, and analyzed by using LC-MS/MS.
(§10) Compound 3: 20 μl plasma was taken and added into 800 μl of KBP-3957 methyl tert-butyl ether solution at a concentration of 10 ng/ml, mixed under vortex for 10 minutes, centrifuged at 12000 rpm for 5 minutes; 400 μl of supernatant was taken and added into a 96-well plate, purged to dryness by nitrogen, 200 μl of methanol:water (7:3) solution was added, mixed under vortex for 10 minutes, and analyzed by using LC-MS/MS.
(§11) Compound 2 is the prodrug of compound 1. Compound 5 is the prodrug of compound 4. Compound 7 is the prodrug of compound 6. Compound 9 is the prodrug of compound 8. Thus, PK data of active compounds, i.e. compounds 1, 4, 6, 8, were detected after administration, respectively.

Data set [7] can be described thus: In vivo pharmacokinetics test on rat, P.O (lavage). The settings on record: plasma, po, male SD rat, Compound 3 itself detected. As for the experimental part: as §5, §6
P.O representing administration by lavage
as §7, §8, §9, §10, §11
Calculation Formula Absolute bioavailability F %=[AUC]INF(PO)*Dose(IV)/[AUC]INF(IV)*Dose(PO)

The values below come from US9359344B2, “Biaryl heterocycle substituted oxazolidinone antibacterial agents” (Xuanzhu Pharma Co., Ltd., priority 2011, dated 2016).

By AUC(0-inf) is commonly meant the area under the concentration-time curve extrapolated to infinity. A higher AUC(0-inf) goes with high exposure. By clearance is commonly meant the rate of elimination divided by the concentration. By half-life is commonly meant the time needed for the level to fall by half in the phase considered. One may read the bioavailability as the share of a dose that reaches the circulation, judged against a reference dose that is usually intravenous. The term Cmax denotes the peak of the concentration-time curve. Broadly, the Tmax is the time at which the peak concentration occurs.

Turning to `CN(c1ccc(-c2ccc(N3C[C@H](CO)OC3=O)cc2F)cn1)c1nnn(C)n1` [Compound 8, (R)-3-(3-fluoro-4-(6-(methyl(2-methyl-2H-tetrazol-5-yl)amino)pyridin-3-yl)phenyl)-5-(hydroxylmethyl)oxazolidin-2-one], the “antibacterial activity MRSA” value in data set [1] is 1 µg/mL. Further, in [2], the “antibacterial activity MRSE” value amounted to 0.5 µg/mL. In addition, in data set [3], the “antibacterial activity MSSA” value turned out to be 1 µg/mL. The “antibacterial activity MSSE” value in data set [4] came to 0.5 µg/mL. In the data set with Enterococcus faecalis, the “antibacterial activity Enterococcus faecalis” value came out at 1 µg/mL. The “antibacterial activity Enterococcus faecium” value with Enterococcus faecium is 1 µg/mL. In addition, in the data set on streptococcus pneumoniae, the “antibacterial activity Streptococcus pneumoniae” value worked out at 0.5 µg/mL.
For `CN(c1ccc(-c2ccc(N3C[C@H](CO)OC3=O)cc2F)cn1)c1nnnn1C` [Compound 6, (R)-3-(3-fluoro-4-(6-(methyl(1-methyl-1H-tetrazol-5-yl)amino)pyridin-3-yl)phenyl)-5-(hydroxylmethyl)oxazolidin-2-one], the “antibacterial activity MRSA” value in data set [1] is 0.5 µg/mL. In data set [2], the “antibacterial activity MRSE” value came to 0.5 µg/mL. The “antibacterial activity MSSA” value in [3] is 0.5 µg/mL. Further, the “antibacterial activity MSSE” value in [4] turned out to be 0.5 µg/mL. Besides, in the data set on Enterococcus faecalis, the “antibacterial activity Enterococcus faecalis” value is 1 µg/mL. In the data set on Enterococcus faecium, the “antibacterial activity Enterococcus faecium” value came out at 1 µg/mL. Also, the “antibacterial activity Streptococcus pneumoniae” value in the data set on streptococcus pneumoniae was 0.5 µg/mL.
Turning to `CC(=O)NC[C@H]1CN(c2ccc(N3CCOCC3)c(F)c2)C(=O)O1` [linezolid, Linezolid, reference compound], the “antibacterial activity MRSA” value in data set [1] amounted to 4 µg/mL. In [2], the “antibacterial activity MRSE” value turned out to be 2 µg/mL. Besides, the “antibacterial activity MSSA” value in data set [3] came to 2 µg/mL. Further, in data set [4], the “antibacterial activity MSSE” value is 2 µg/mL. Also, in the data set with Enterococcus faecalis, the “antibacterial activity Enterococcus faecalis” value turned out to be 4 µg/mL. Also, the “antibacterial activity Enterococcus faecium” value with Enterococcus faecium is 4 µg/mL. For the same molecule, the “antibacterial activity Streptococcus pneumoniae” value with streptococcus pneumoniae came out at 2 µg/mL.
`Cn1nnnc1Nc1ccc(-c2ccc(N3C[C@H](CO)OC3=O)cc2F)cn1` [Compound 4, (R)-3-(3-fluoro-4-(6-((1-methyl-1H-tetrazol-5-yl)amino)pyridin-3-yl)phenyl)-5-(hydroxylmethyl)oxazolidin-2-one]: the “antibacterial activity MRSA” value in data set [1] worked out at 0.25 µg/mL. Also, the “antibacterial activity MRSE” value in data set [2] was 0.125 µg/mL. Further, the “antibacterial activity MSSA” value in data set [3] is 0.25 µg/mL. Also, the “antibacterial activity MSSE” value in data set [4] was found to be 0.125 µg/mL. Besides, the “antibacterial activity Enterococcus faecalis” value with Enterococcus faecalis is 0.25 µg/mL. In addition, the “antibacterial activity Enterococcus faecium” value in the data set with Enterococcus faecium came to 0.25 µg/mL. Moreover, the “antibacterial activity Streptococcus pneumoniae” value in the data set on streptococcus pneumoniae was determined as 1 µg/mL.
In the case of `CC(=O)NC[C@H]1CN(c2ccc(-c3ccc(Nc4nnn(C)n4)nc3)c(F)c2)C(=O)O1` [Compound 3, (S)-N-((3-(3-fluoro-4-(6-((2-methyl-2H-tetrazol-5-yl)amino)pyridin-3-yl)phenyl)-2-oxooxazolidin-5-yl)methyl)acetamide], the “antibacterial activity MRSA” value in data set [1] came to 1 µg/mL. The “antibacterial activity MRSE” value in data set [2] was found to be 0.25 µg/mL. Also, the “antibacterial activity MSSA” value in data set [3] came to 0.5 µg/mL. In addition, in data set [5], the “antibacterial activity MSSE” value was 0.25 µg/mL. Moreover, in the data set on Enterococcus faecalis, the “antibacterial activity Enterococcus faecalis” value worked out at 0.25 µg/mL. Besides, the “antibacterial activity Enterococcus faecium” value with Enterococcus faecium was 0.25 µg/mL. Besides, the “antibacterial activity Streptococcus pneumoniae” value with streptococcus pneumoniae was 0.25 µg/mL. In [6], this molecule had a total exposure AUC(0-inf) of 11600 ng·h/mL, a clearance of 1.17 mL/min/kg and a half-life of 5.29 h. Further, the Vd in [6] (read-out: Vss) was 0.37 L/kg. Besides, the bioavailability in data set [7] (P.O 1 mg/kg vs I.V 0.75 mg/kg, read-out: F % (absolute bioavailability)) came to 45.5%. Moreover, in data set [7] (P.O, 1 mg/kg), the AUC(0-inf) is 7030 ng·h/mL, the Cmax is 614 ng/mL, the time of peak concentration (Tmax) came to 4 h and the half-life is 5.55 h.
For the molecule `Cn1cc(Nc2ccc(-c3ccc(N4C[C@H](CO)OC4=O)cc3F)cn2)nn1` [Compound 11, (R)-3-(3-fluoro-4-(6-((1-methyl-1H-1,2,3-triazol-4-yl)amino)pyridin-3-yl)phenyl)-5-(hydroxylmethyl)oxazolidin-2-one], the “antibacterial activity MRSA” value in data set [1] was 1 µg/mL. In [2], the “antibacterial activity MRSE” value was found to be 1 µg/mL. Besides, the “antibacterial activity MSSA” value in data set [3] was determined as 1 µg/mL. In data set [4], the “antibacterial activity MSSE” value amounted to 0.5 µg/mL. In addition, the “antibacterial activity Enterococcus faecalis” value with Enterococcus faecalis was determined as 2 µg/mL. Besides, the “antibacterial activity Enterococcus faecium” value with Enterococcus faecium worked out at 2 µg/mL. Further, in the data set on streptococcus pneumoniae, the “antibacterial activity Streptococcus pneumoniae” value amounted to 1 µg/mL.
For the molecule `Cn1nnc(Nc2ccc(-c3ccc(N4C[C@H](CO)OC4=O)cc3F)cn2)n1` [Compound 1, (R)-3-(3-fluoro-4-(6-((2-methyl-2H-tetrazol-5-yl)amino)pyridin-3-yl)phenyl)-5-(hydroxylmethyl)oxazolidin-2-one], the “antibacterial activity MRSA” value in data set [1] came out at 1 µg/mL. Moreover, in [2], the “antibacterial activity MRSE” value stood at 0.5 µg/mL. Besides, the “antibacterial activity MSSA” value in data set [3] turned out to be 1 µg/mL. In addition, in [4], the “antibacterial activity MSSE” value is 0.5 µg/mL. For the same molecule, the “antibacterial activity Enterococcus faecalis” value in the data set with Enterococcus faecalis stood at 1 µg/mL. Moreover, in the data set with Enterococcus faecium, the “antibacterial activity Enterococcus faecium” value worked out at 1 µg/mL. Also, the “antibacterial activity Streptococcus pneumoniae” value in the data set on streptococcus pneumoniae came to 0.5 µg/mL.
